Laboratory results reported in PMC8942523, “The three-tails approach as a new strategy to improve selectivity of action of sulphonamide inhibitors against tumour-associated carbonic anhydrase IX and XII” (Journal of Enzyme Inhibition and Medicinal Chemistry, 2022).

Biological target: T1, hCA IX (Homo sapiens, UniProt Q16790)
T1 construct: gene CA9
Experiment: stopped-flow CO2 hydration
Type: biochemical
Source text: stopped-flow CO2 hydration on hCA IX

Structure (SMILES)	Ki
N#CCCN(CCc1ccccc1)CC(=O)N(CCc1ccccc1)CCc1ccc(S(N)(=O)=O)cc1 [compound 34, 34]	32.3 nM
N#CCCN(CCc1ccccc1)CC(=O)N(CCc1ccc(S(N)(=O)=O)cc1)Cc1ccc(F)cc1 [compound 36, 36]	3 nM
NCCCN(CCc1ccccc1)CC(=O)N(CCc1ccc(S(N)(=O)=O)cc1)Cc1ccco1 [compound 41, 41]	11.1 nM
CCCCCN(CCCCC)CC(=O)N(CCc1ccc(S(N)(=O)=O)cc1)Cc1ccccc1 [compound 21, 21]	48.5 nM
CCCCCCN(CCCCCC)CCC(=O)N(CCc1ccccc1)CCc1ccc(S(N)(=O)=O)cc1 [compound 30, 30]	42.9 nM
CCN(CC)CCC(=O)N(CCc1ccc(S(N)(=O)=O)cc1)Cc1ccccc1 [compound 24, 24]	31.1 nM
CCCCCCN(CCCCCC)CC(=O)N(CCc1ccc(S(N)(=O)=O)cc1)Cc1ccccc1 [compound 22, 22]	123 nM
NS(=O)(=O)c1ccc(CCN(Cc2ccc(F)cc2)C(=O)CN(CCC(=O)O)CCc2ccccc2)cc1 [compound 47, 47]	11.1 nM
CCN(CC)CC(=O)N(CCc1ccc(S(N)(=O)=O)cc1)Cc1ccccc1 [compound 18, 18]	30.6 nM
NS(=O)(=O)c1ccc(CCN(Cc2ccccc2)C(=O)CN(Cc2ccccc2)Cc2ccccc2)cc1 [compound 20, 20]	234 nM
NCCCN(CCc1ccccc1)CC(=O)N(CCc1ccc(S(N)(=O)=O)cc1)Cc1ccc2ccccc2c1 [compound 43, 43]	34.3 nM
CCCCCN(CCCCC)CCC(=O)N(CCc1ccc(S(N)(=O)=O)cc1)Cc1ccccc1 [compound 27, 27]	134 nM
N#CCCN(CCc1ccccc1)CC(=O)N(CCc1ccc(S(N)(=O)=O)cc1)Cc1ccc([N+](=O)[O-])cc1 [compound 38, 38]	202 nM
CCCCCCN(CCCCCC)CCC(=O)N(CCc1ccc(S(N)(=O)=O)cc1)Cc1ccccc1 [compound 28, 28]	94.2 nM
CCCCCCN(CCCCCC)CC(=O)N(CCC(=O)O)CCc1ccc(S(N)(=O)=O)cc1 [compound 49, 49]	68.3 nM
CCCCCCN(CCCCCC)CC(=O)N(CCc1ccc(S(N)(=O)=O)cc1)Cc1ccc2ccccc2c1 [compound 32, 32]	296 nM

Structure (SMILES)	Ki
CCCCCCN(CCCCCC)CC(=O)N(CCCN)CCc1ccc(S(N)(=O)=O)cc1 [compound 44, 44]	116 nM
NS(=O)(=O)c1ccc(CCN(Cc2ccccc2)C(=O)CCN(Cc2ccccc2)Cc2ccccc2)cc1 [compound 26, 26]	106 nM
NS(=O)(=O)c1ccc(CCN(Cc2ccco2)C(=O)CN(CCC(=O)O)CCc2ccccc2)cc1 [compound 46, 46]	1.2 nM
N#CCCN(CCc1ccccc1)CC(=O)N(CCc1ccc(S(N)(=O)=O)cc1)Cc1ccc2ccccc2c1 [compound 37, 37]	151 nM
NS(=O)(=O)c1ccc(CCN(Cc2ccc3ccccc3c2)C(=O)CN(CCC(=O)O)CCc2ccccc2)cc1 [compound 48, 48]	22.1 nM
CCCCCCCC/C=C\CCCCCCCCNC(=O)CCN(CCc1ccccc1)CC(=O)N(CCc1ccc(S(N)(=O)=O)cc1)Cc1ccco1 [compound 50, 50]	61.1 nM
NCCCN(CCc1ccccc1)CC(=O)N(CCc1ccccc1)CCc1ccc(S(N)(=O)=O)cc1 [compound 40, 40]	4 nM
CCN(CC(=O)N(CCc1ccc(S(N)(=O)=O)cc1)Cc1ccccc1)Cc1ccccc1 [compound 19, 19]	119 nM
N#CCCN(CCc1ccccc1)CC(=O)N(CCC#N)CCc1ccc(S(N)(=O)=O)cc1 [compound 39, 39]	19.3 nM
NCCCN(CCc1ccccc1)CC(=O)N(CCc1ccc(S(N)(=O)=O)cc1)Cc1ccc(F)cc1 [compound 42, 42]	4.8 nM
CCCCCCCCN(CCCCCCCC)CC(=O)N(CCc1ccc(S(N)(=O)=O)cc1)Cc1ccccc1 [compound 23, 23]	271 nM
N#CCCN(CCc1ccccc1)CC(=O)N(CCc1ccc(S(N)(=O)=O)cc1)Cc1ccco1 [compound 35, 35]	95.1 nM
CCCCCCN(CCCCCC)CC(=O)N(CCC#N)CCc1ccc(S(N)(=O)=O)cc1 [compound 33, 33]	154 nM
CCN(CCC(=O)N(CCc1ccc(S(N)(=O)=O)cc1)Cc1ccccc1)Cc1ccccc1 [compound 25, 25]	166 nM
NS(=O)(=O)c1ccc(CCN(CCc2ccccc2)C(=O)CN(CCC(=O)O)CCc2ccccc2)cc1 [compound 45, 45]	7.5 nM
CCCCCCCCN(CCCCCCCC)CCC(=O)N(CCc1ccc(S(N)(=O)=O)cc1)Cc1ccccc1 [compound 29, 29]	147 nM
